In publication PMC7087839 (Chemistry of Natural Compounds, 2018):

Assays:
Format in all cases: cell-based
[1] = test system: Polio virus (strain Type 3, WM-3)
[2] = test system: Rift Valley fever virus (strain MP-12)
[3] = test system: SARS corona virus (strain Urbani)
[4] = test system: Tacaribe virus (strain TRVL-11573)

Compound | antiviral activity against Polio virus (in words) [1] | activity against Rift valley fever virus (in words) [2] | activity against Sars corona virus (in words) [3] | activity against Takaribe virus (in words) [4]
CC(=NNc1ccc([N+](=O)[O-])cc1)C1=CC[C@H]2[C@@H]3CC[C@H]4C[C@@H](O)CC[C@]4(C)[C@H]3CC[C@]12C [Compound 12, 5′-preg-16-en-3β-ol-20-one p-nitrophenylhydrazone] | moderate | weakly active |  | 
C[C@]12CC[C@H](OC(=O)Cc3ccccc3)C[C@@H]1CC[C@@H]1[C@@H]2CC[C@]2(C)C(=NNC(=O)c3cccnc3)CC[C@@H]12 [Compound 5, 3 β-Phenylacetoxy-5α-androstan-17-one Nicotinoylhydrazone] | moderate | weakly active | weakly active | weak activity
C[C@]12CC[C@H](OC(=O)Cc3ccccc3)C[C@@H]1CC[C@@H]1[C@@H]2CC[C@]2(C)C(=NNC(=O)c3cccc([N+](=O)[O-])c3)CC[C@@H]12 [Compound 4, 3 β -Phenylacetoxy-5α-androstan-17-one m-nitrobenzoylhydrazone] | high |  | weakly active | 
